As usually defined, the IC50 is the concentration needed to halve the response being measured.

Read-outs that look alike come from different tables or passages of the source.

This is an account of results in publication PMC9037111, “Structure-based design, synthesis, and biological evaluation of novel piperine–resveratrol hybrids as antiproliferative agents targeting SIRT-2” (RSC Advances, 2021).

For one assay, the system named is HCT-15. Put plainly: cells. More on the design: species or system NCI-60 human tumour cell lines; NCI-60 one-dose screen at 10 uM, percent growth inhibition versus untreated control cells. The note with it: Homo sapiens, HCT-15, growth inhibition, one dose. As for the experimental part: (§1) The antiproliferative activity of the target compounds 5a–h was screened against a panel of 60 cancer cell lines according to NCI-guidelines at concentration of 10 μM. The results for each compound (Table 1) were recorded as the percent of growth inhibition of treated cells compared to untreated control cells. […] In addition, 5b recorded significant activity against leukemia cancer cell lines K-562 and MOLT-4, Non-small cell lung cancer cell lines NCI-H322M and NCI-H460, Colon cancer cell lines COLO 205, HCT-15 and HCT-116, CNS cancer cell lines SF-295 and SF-539, Melanoma cancer cell lines LOX IMVI and UACC-62, Ovarian cancer cell lines NCI/ADR-RES, OVCAR-3, and OVCAR-4, Renal cancer cell lines CAKI-1, ACHN, and UO-31, and Breast cancer MCF7 cell line with growth inhibition percentage between 80 to 95. […] The methodology of the NCI anticancer screening has been described in detail elsewhere (https://dtp.cancer.gov/).[52]

The next assay has as its system KM12. Kind of assay: cells. More on the design: species or system NCI-60 human tumour cell lines; NCI-60 one-dose screen at 10 uM, percent growth inhibition versus untreated control cells. To be noted: Homo sapiens, KM12, growth inhibition, one dose. Here is the method: as §1
The subject of another assay is SR. Kind of assay: cells. The note with it: Homo sapiens, SR, growth inhibition, one dose. Details: species or system NCI-60 human tumour cell lines; NCI-60 one-dose screen at 10 uM, percent growth inhibition versus untreated control cells. Here is the method: as §1
For the next assay, the system named is UACC-62. Put plainly: cells. Details: species or system NCI-60 human tumour cell lines; NCI-60 one-dose screen at 10 uM, percent growth inhibition versus untreated control cells. The note with it: Homo sapiens, UACC-62, growth inhibition, one dose. As for the experimental part:
as §1

The subject of a further assay is MOLT-4. Put plainly: cells. Details: species or system NCI-60 human tumour cell lines; NCI-60 one-dose screen at 10 uM, percent growth inhibition versus untreated control cells. To be noted: Homo sapiens, MOLT-4, growth inhibition, one dose. As for the experimental part:
as §1

In the next assay the test system is OVCAR-4. Put plainly: cells. Details: species or system NCI-60 human tumour cell lines; NCI-60 one-dose screen at 10 uM, percent growth inhibition versus untreated control cells. The note with it: Homo sapiens, OVCAR-4, growth inhibition, one dose. As for the experimental part:
as §1

The next assay deals with T1, SIRT2 (Homo sapiens, UniProt Q8IXJ6).
T1 sequence (Q8IXJ6 2-389): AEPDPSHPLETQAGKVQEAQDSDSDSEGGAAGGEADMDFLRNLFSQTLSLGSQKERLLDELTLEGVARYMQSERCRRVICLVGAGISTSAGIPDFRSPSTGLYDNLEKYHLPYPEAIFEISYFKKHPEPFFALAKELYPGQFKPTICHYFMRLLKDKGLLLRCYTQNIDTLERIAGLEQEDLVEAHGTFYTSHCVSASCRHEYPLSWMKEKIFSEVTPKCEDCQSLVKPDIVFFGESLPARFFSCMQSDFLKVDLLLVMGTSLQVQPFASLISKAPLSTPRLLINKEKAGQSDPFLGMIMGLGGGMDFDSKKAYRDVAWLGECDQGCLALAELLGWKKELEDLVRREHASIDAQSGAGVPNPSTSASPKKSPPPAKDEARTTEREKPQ
Put plainly: sirtuin deacetylase inhibition assay, IC50. It is filed as biochemical.

A further assay relates to A549/ATCC. Kind of assay: cells. To be noted: Homo sapiens, A549, growth inhibition, one dose. Details: species or system NCI-60 human tumour cell lines; NCI-60 one-dose screen at 10 uM, percent growth inhibition versus untreated control cells. As for the experimental part:
as §1

A further assay concerns ACHN. Kind of assay: cells. Details: species or system NCI-60 human tumour cell lines; NCI-60 one-dose screen at 10 uM, percent growth inhibition versus untreated control cells. To be noted: Homo sapiens, ACHN, growth inhibition, one dose. As for the experimental part:
as §1

Another assay has as its system DU-145. Put plainly: cells. More on the design: species or system NCI-60 human tumour cell lines; NCI-60 one-dose screen at 10 uM, percent growth inhibition versus untreated control cells. The note with it: Homo sapiens, DU-145, growth inhibition, one dose. As for the experimental part:
as §1

The next assay concerns HS 578 T. Put plainly: cells. Details: species or system NCI-60 human tumour cell lines; NCI-60 one-dose screen at 10 uM, percent growth inhibition versus untreated control cells. The note with it: Homo sapiens, Hs-578T, growth inhibition, one dose. As for the experimental part:
as §1

In a further assay the test system is MALME-3M. Kind of assay: cells. Details: species or system NCI-60 human tumour cell lines; NCI-60 one-dose screen at 10 uM, percent growth inhibition versus untreated control cells. The note with it: Homo sapiens, Malme-3M, growth inhibition, one dose. Here is the method:
as §1

In another assay the test system is NCI-H460. Put plainly: cells. Details: species or system NCI-60 human tumour cell lines; NCI-60 one-dose screen at 10 uM, percent growth inhibition versus untreated control cells. To be noted: Homo sapiens, NCI-H460, growth inhibition, one dose. Here is the method:
as §1

The subject of the next assay is OVCAR-8. Put plainly: cells. Details: species or system NCI-60 human tumour cell lines; NCI-60 one-dose screen at 10 uM, percent growth inhibition versus untreated control cells. To be noted: Homo sapiens, OVCAR-8, growth inhibition, one dose. As for the experimental part:
as §1

The next assay deals with SN12C. Kind of assay: cells. More on the design: species or system NCI-60 human tumour cell lines; NCI-60 one-dose screen at 10 uM, percent growth inhibition versus untreated control cells. To be noted: Homo sapiens, SN12C, growth inhibition, one dose. As for the experimental part: as §1
A further assay concerns U251. Kind of assay: cells. More on the design: species or system NCI-60 human tumour cell lines; NCI-60 one-dose screen at 10 uM, percent growth inhibition versus untreated control cells. The note with it: Homo sapiens, U-251, growth inhibition, one dose. Here is the method: as §1
The mark [1] stands for this setting: read-out: Growth% inhibition / 5d.
[2] abbreviates: read-out: Growth% inhibition / 5a.
The mark [3] stands for this setting: read-out: Growth% inhibition / 5b.
The mark [4] stands for this setting: read-out: Growth% inhibition / 5e.

Take `CN(C)c1ccc(C=NNC(=O)/C=C/C=C/c2ccc3c(c2)OCO3)cc1` (mixture of isomers) [5d, (2E,4E)-5-(Benzo[d][1,3]dioxol-5-yl)-N′-((E/Z)-4-(dimethylamino)-benzylidene)penta-2,4-dienehydrazide]: the inhibition at 10 µM with HCT-15 (setting [1]) was 24.2%; in the assay on KM12 (setting [1]), 14.2%; in the assay with SR (setting [1]), 62%; in the assay with UACC-62 (setting [1]), 16.1%.

`O=C(/C=C/C=C/c1ccc2c(c1)OCO2)NN=Cc1ccc(O)cc1` [5a, (2E,4E)-5-(Benzo[d][1,3]dioxol-5-yl)-N′-((E,Z)-4-hydroxybenzylidene)penta-2,4-dienehydrazide]: the inhibition at 10 µM with HCT-15 (setting [2]) amounted to 39.7%; in the assay on KM12 (setting [2]), 33.4%; with MOLT-4 (setting [2]), 23.5%; in the assay with OVCAR-4 (setting [2]), 12.7%; in the assay on SR (setting [2]) it was 64%; in the assay on UACC-62 (setting [2]) it was 28.5%.

Molecule `O=C(/C=C/C=C/c1ccc2c(c1)OCO2)N/N=C/c1ccc(O)cc1O` [5b, (2E,4E)-5-(Benzo[d][1,3]dioxol-5-yl)-N′-((E)-2,4-dihydroxybenzylidene)penta-2,4-dienehydrazide] registered an IC50 at SIRT2 of 21 ± 3 µM. Further, the inhibition at 10 µM worked out at 63.9% in the assay with A549/ATCC (setting [3]); 85.6% in the assay with ACHN (setting [3]); 50% in the assay with DU-145 (setting [3]); 83% in the assay on HCT-15 (setting [3]); 29.8% in the assay with HS 578 T (setting [3]); 76.6% with KM12 (setting [3]). The inhibition at 10 µM in the assay on MALME-3M (setting [3]) was determined as 59.7%; in the assay with MOLT-4 (setting [3]) it was 86.7%; with NCI-H460 (setting [3]) it was 86%; in the assay with OVCAR-4 (setting [3]), 90.8%; with OVCAR-8 (setting [3]), 77.2%; in the assay on SN12C (setting [3]), 67.2%. Besides, the inhibition at 10 µM with SR (setting [3]) came out at 78.7%; with U251 (setting [3]) it was 68.7%; with UACC-62 (setting [3]), 85.7%.

For the molecule `CCN(CC)c1ccc(/C=N/NC(=O)/C=C/C=C/c2ccc3c(c2)OCO3)c(O)c1` [5e, (2E,4E)-5-(Benzo[d][1,3]dioxol-5-yl)-N′-((E)-4-(diethylamino)-2-hydroxybenzylidene)penta-2,4-dienehydrazide], at SIRT2, the midpoint of inhibition, the IC50, lay at 23 ± 2 µM. In addition, the inhibition at 10 µM is 46.7% in the assay with A549/ATCC (setting [4]); 74.4% with ACHN (setting [4]); 46.8% in the assay on DU-145 (setting [4]); 78.7% in the assay on HCT-15 (setting [4]); 31.9% with HS 578 T (setting [4]); 69.8% with KM12 (setting [4]). The inhibition at 10 µM in the assay with MALME-3M (setting [4]) turned out to be 43.5%; in the assay on MOLT-4 (setting [4]), 81.7%; with NCI-H460 (setting [4]), 80.2%; in the assay on OVCAR-4 (setting [4]), 84.7%; in the assay with OVCAR-8 (setting [4]), 67.1%; in the assay on SN12C (setting [4]), 45.9%. The inhibition at 10 µM with SR (setting [4]) amounted to 82.4%; in the assay on U251 (setting [4]), 56.8%; in the assay on UACC-62 (setting [4]), 70.9%.
